# Results taken from patent publication EP0571593B1, “NEW NON IONIC IODIZED AGENTS FOR X-RAY CONTRASTING, METHOD FOR PREPARING THEM AND GALENICAL COMPOSITIONS CONTAINING THEM” (CENTRO INVESTIGACION JUSTESA IMAGEN S.A., priority 1991, dated 1993).
# Tests used:
# [1] = Viscosity of aqueous solutions; format: physicochemical
# Iodine content = format: physicochemical; details: for Iodine Content (%): comparison table with IOTROLAN
# rat = assay: ED50 after intracisternal (i.cis.) administration; format: in vivo
# Sprague-Dawley rats = assay: Intravenous toxicity, lethal dose for 50% of the animals; format: in vivo; details: i.v. via the caudal vein at 2.2ml/min, mortality during seven days
# [2] = Osmolality of aqueous solutions; format: physicochemical
Compound,Viscosity (mPa.S at 300 mg I/ml) 37°C [1],Viscosity mPa s (30°C) at 300mg I/ml [1],% Iodine (Iodine content),Iodine Content (%) (Iodine content),"ED50, rat i.cis. (mg I/kg) (rat)","LD50, rat i.v. (g I/kg) (Sprague-Dawley rats)",Osmolality mosm/kg at 300mg I/ml [2],Osmolality (mOsm/kg at 300 mg I/ml) 37°C [2]
"COCC(=O)Nc1c(I)c(C(=O)NCC(O)CO)c(I)c(C(=O)N(C)CC(=O)N(C)c2c(I)c(C(=O)NC(CO)C(O)CO)c(I)c(C(=O)NC(CO)C(O)CO)c2I)c1I (centres unmarked) [EXAMPLE 9, N,N'-bis-(1-hydroxymethyl-2,3-dihydroxypropyl)-5-{3-[N-(2,3-dihydroxypropyl)carbamoyl]-5-methoxyacetamido-2,4,6-triiodobenzoyl-N-methylaminoacetyl-N-methylamino}-2,4,6-tri-iodoisophthalamide]","8,2 mPa.S","8,2 mPa s","49,6%","49,6%",350 mg I/kg,20-25 g I/kg,226 mosm/kg,226 mOsm/kg
"CN(CC(=O)N(C)c1c(I)c(C(=O)NCC(O)CO)c(I)c(C(=O)NCC(O)CO)c1I)C(=O)c1c(I)c(NC(=O)CO)c(I)c(C(=O)NCC(O)CO)c1I (centres unmarked) [EXAMPLE 11, N,N'-bis-(2,3-dihydroxypropyl)-5-{3-[N-(2,3-dihydroxypropyl)carbamoyl]-5-hydroxyacetamido-2,4,6-triiodobenzoyl-N-methylaminoacetyl-N-methylamino}-2,4,6-triiodo isophthalamide]","7,0 mPa.S","6,9 mPa s",52%,"52,1%",500 mg I/kg,23 g I/kg,152 mosm/kg,152 mOsm/kg
"CC(=O)Nc1c(I)c(C(=O)NCC(O)CO)c(I)c(C(=O)N(CC(=O)Nc2c(I)c(C(=O)NCC(O)CO)c(I)c(C(=O)NCC(O)CO)c2I)CC(O)CO)c1I (centres unmarked) [EXAMPLE 36, N,N-bis-(2,3-dihydroxypropyl)-5-{3-[N-(2,3-dihydroxypropyl)carbamoyl]-5-acetamido-2,4,6-triiodobenzoyl-N-(2,3-dihidroxypropyl)aminoacetamido}-2,4,6-triiodoisophthalamide]","8,3-8,8 mPa.S","8,8 mPa s",51%,"51,0%",550 mg I/kg,25-27 g I/kg,125 mosm/kg,125 mOsm/kg
"COCC(=O)Nc1c(I)c(C(=O)N(C)CC(=O)N(C)c2c(I)c(C(=O)NCC(O)CO)c(I)c(C(=O)NCC(O)CO)c2I)c(I)c(C(=O)N(CCO)CC(O)CO)c1I (centres unmarked) [EXAMPLE 41, N,N'-bis-(2,3-dihydroxypropyl)-5-{3-[N-(2-hydroxyethyl)-N-(2,3-dihydroxypropyl)carbamoyl]-5-methoxyacetamido-2,4,6-triiodobenzoyl-N-methylaminoacetyl-N-methylamino} --2,4,6-triiodoisophthalamide]",,"9,0 mPa s","50,0%",,,,135 mosm/kg,
"CC(=O)Nc1c(I)c(C(=O)NCC(O)CO)c(I)c(C(=O)N(C)CC(=O)N(C)c2c(I)c(C(=O)N(CCO)CC(O)CO)c(I)c(C(=O)N(CCO)CC(O)CO)c2I)c1I (centres unmarked) [EXAMPLE 42, N,N'-bis-(2-hydroxyethyl)-N,N'-bis-(2,3-dihydroxypropyl)-5-{3-[N-(2,3-dihydroxypropyl)carbamoyl]-5-acetamido-2,4,6-triiodobenzoyl-N-methylaminoacetyl-N-methylamino}-2,4,6-triiodoisophthalamide]",,"8,8 mPa s","49,6%",,,,180 mosm/kg,
"CN(C(=O)CC(=O)N(C)c1c(I)c(C(=O)NC(CO)C(O)CO)c(I)c(C(=O)NC(CO)C(O)CO)c1I)c1c(I)c(C(=O)NC(CO)C(O)CO)c(I)c(C(=O)NC(CO)C(O)CO)c1I (stereo not drawn) [IOTROLAN, N,N'-dimethyl-N,N'-bis[3,5-(l-hydroxymethyl-2,3-dihydroxy-propyl-carbamoyl) -2,4,6-triiodo-phenyl]-diamide of malonic acid, reference compound]","8,1-9,2 mPa.S",,,47%,315 mg I/kg,25-28 g I/kg,,320 mOsm/kg
